PubChem BioAssay (NCI)
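How tested: cells in 96-well plates exposed to compound for 48 hours at five concentrations. TGI denotes the concentration required for complete inhibition of growth.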

Legend:
Assay in all cases: NCI-60 cell line screen, 48 h
[1] = test system: 786-0 renal
[2] = test system: COLO 205 colon
[3] = test system: HCT-15 colon
[4] = test system: HOP-62 NSCLC
[5] = test system: IGROV1 ovarian
[6] = test system: PC-3 prostate
[7] = test system: SF-268 CNS
[8] = test system: SF-539 CNS
[9] = test system: SW-620 colon
[10] = test system: UACC-257 melanoma

CC(C)C[S+]1C2=C([O-])CC(C)(C)CC2=Nc2ccccc21 (stereo not given)
TGI [1]: > 100 µM | TGI [2]: > 100 µM | TGI [3]: > 100 µM | TGI [4]: > 100 µM | TGI [5]: > 100 µM | TGI [6]: > 100 µM | TGI [7]: > 100 µM | TGI [8]: > 100 µM | TGI [9]: > 100 µM | TGI [10]: > 100 µM

C/C=C/CC(C(=O)OCC)(N(C)C(=O)OC(C)(C)C)S(=O)(=O)c1ccc(C)cc1 (stereo not given)
TGI [1]: > 100 µM | TGI [2]: > 100 µM | TGI [3]: > 100 µM | TGI [4]: > 100 µM | TGI [5]: > 100 µM | TGI [6]: > 100 µM | TGI [7]: > 100 µM | TGI [8]: > 100 µM | TGI [9]: > 100 µM | TGI [10]: > 100 µM

c1ccc(CN2CCC(=NN3CCCCC3)CC2)cc1
TGI [1]: > 100 µM | TGI [2]: 99.5 µM | TGI [3]: > 100 µM | TGI [4]: > 100 µM | TGI [5]: > 100 µM | TGI [6]: > 100 µM | TGI [7]: > 100 µM | TGI [8]: > 100 µM | TGI [9]: > 100 µM | TGI [10]: > 100 µM

CC(NC(=O)Cc1ccc(OP(=O)(OCc2ccc([N+](=O)[O-])o2)N(C)CCCCCl)cc1)c1ccc(OCC2CCCCC2)c(C(N)=O)c1 (stereo not given)
TGI [1]: 10.8 µM | TGI [2]: 3.1 µM | TGI [3]: 6.44 µM | TGI [4]: 6.07 µM | TGI [5]: 4.76 µM | TGI [6]: 19.6 µM | TGI [7]: 6.27 µM | TGI [8]: 4.09 µM | TGI [9]: 10.2 µM | TGI [10]: 3.27 µM

CN1C(=O)c2ccccc2C(O)(c2ccccc2)C1(O)c1ccccc1 (stereo not given)
TGI [1]: > 100 µM | TGI [2]: > 100 µM | TGI [3]: > 100 µM | TGI [4]: > 100 µM | TGI [5]: > 100 µM | TGI [6]: > 100 µM | TGI [7]: > 100 µM | TGI [8]: > 100 µM | TGI [9]: > 100 µM | TGI [10]: > 100 µM

O=Cc1c2c(cc3c1CC1(C3)Cc3cc4c(c(C=O)c3C1)CCCC4)CCCC2
TGI [1]: > 31.6 µM | TGI [2]: > 31.6 µM | TGI [3]: > 31.6 µM | TGI [4]: > 31.6 µM | TGI [5]: > 31.6 µM | TGI [6]: > 31.6 µM | TGI [7]: > 100 µM | TGI [8]: > 31.6 µM | TGI [9]: > 100 µM | TGI [10]: > 31.6 µM

COc1ccc(C=Nc2ccc(-c3nc4ccccc4s3)cc2)cc1OC
TGI [1]: 44.3 µM | TGI [2]: 39.6 µM | TGI [3]: > 100 µM | TGI [4]: 39.2 µM | TGI [5]: 86.4 µM | TGI [6]: 69.9 µM | TGI [7]: > 100 µM | TGI [8]: > 100 µM | TGI [9]: > 100 µM | TGI [10]: 61 µM

CC(=O)N1C(C(=O)NN2CCOCC2)CSC1c1ccccc1 (stereo not given)
TGI [1]: > 100 µM | TGI [2]: > 100 µM | TGI [3]: > 100 µM | TGI [4]: > 100 µM | TGI [5]: > 100 µM | TGI [6]: > 100 µM | TGI [7]: > 100 µM | TGI [8]: > 100 µM | TGI [9]: > 100 µM | TGI [10]: > 100 µM

CCCNC1=C2C[C@@H](C)C[C@@H](OC)[C@@H](OC(=O)CCCN)[C@H](C)/C=C(\C)[C@@H](OC(N)=O)[C@H](OC)/C=C\C=C(/C)C(=O)NC(=CC1=O)C2=O
TGI [1]: 53.9 µM | TGI [2]: 12.1 µM | TGI [3]: 46.8 µM | TGI [4]: 31.3 µM | TGI [5]: 34.8 µM | TGI [6]: 26.9 µM | TGI [7]: 36.7 µM | TGI [8]: 39.9 µM | TGI [9]: > 43.8 µM | TGI [10]: 12 µM

COc1ccccc1N1CCN(CCCCNC(=O)c2ccc([N+](=O)[O-])o2)CC1
TGI [1]: 21.4 µM | TGI [2]: 6.79 µM | TGI [3]: 17.5 µM | TGI [4]: 16.5 µM | TGI [5]: 28.9 µM | TGI [6]: 39.8 µM | TGI [7]: 35.4 µM | TGI [8]: 19.5 µM | TGI [9]: > 66 µM | TGI [10]: 13.2 µM

COc1ccccc1-n1cnc2c1NC(C)(C)N=C2C(N)=O
TGI [1]: > 100 µM | TGI [2]: > 100 µM | TGI [3]: > 100 µM | TGI [4]: > 100 µM | TGI [5]: > 100 µM | TGI [6]: > 100 µM | TGI [7]: > 100 µM | TGI [8]: > 100 µM | TGI [9]: > 100 µM | TGI [10]: > 100 µM

CC[C@H](C)[C@H](NC(=O)N(CCC#N)CCN(CCN(C(=O)N[C@@H](Cc1ccccc1)C(=O)OC)c1ccccc1)C(=O)N[C@H](C(=O)OC)C(C)C)C(=O)OC
TGI [1]: 17.1 µM | TGI [2]: 52.6 µM | TGI [3]: 51.6 µM | TGI [4]: 44.9 µM | TGI [5]: 45.9 µM | TGI [6]: 47.7 µM | TGI [7]: 44.4 µM | TGI [8]: 49.1 µM | TGI [9]: 64.8 µM | TGI [10]: 29 µM

C[C@@H]1C[C@H]2OC(=O)[C@@]3(C)CCC[C@@](C)([C@@H]23)[C@@]1(O)CCc1ccoc1
TGI [1]: > 100 µM | TGI [2]: > 100 µM | TGI [3]: > 100 µM | TGI [4]: > 100 µM | TGI [5]: > 100 µM | TGI [6]: > 100 µM | TGI [7]: > 100 µM | TGI [8]: > 100 µM | TGI [9]: > 100 µM | TGI [10]: > 100 µM

O=C(N/N=C(/COc1ccccc1)N=Cc1ccncc1)c1ccncc1
TGI [1]: > 100 µM | TGI [2]: > 100 µM | TGI [3]: > 100 µM | TGI [4]: > 100 µM | TGI [5]: > 100 µM | TGI [6]: > 100 µM | TGI [7]: > 100 µM | TGI [8]: > 100 µM | TGI [9]: > 100 µM | TGI [10]: > 100 µM

C/C=C1\CC(C(=O)OCC)CCCCCCC1=O (stereo not given)
TGI [1]: > 100 µM | TGI [2]: > 100 µM | TGI [3]: > 100 µM | TGI [4]: > 100 µM | TGI [5]: > 100 µM | TGI [6]: > 100 µM | TGI [7]: > 100 µM | TGI [8]: > 100 µM | TGI [9]: > 100 µM | TGI [10]: > 100 µM

CC(=N/NC(=S)N1CCCCCC1)/C(C)=N\NC(=S)N1CCCCCC1
TGI [1]: 9.79 µM | TGI [2]: 38.5 µM | TGI [3]: 13.6 µM | TGI [4]: 15.2 µM | TGI [5]: 8.44 µM | TGI [6]: 23.8 µM | TGI [7]: 11.2 µM | TGI [8]: > 100 µM | TGI [9]: 5.23 µM | TGI [10]: 13.7 µM
